Reference: US6506778B2, “Acylphenylurea derivatives, a process for their preparation and their use as pharmaceuticals” (Aventis Pharma Deutschland GmbH, priority 2000, dated 2003)

Legend:
[1] = target: T1, human glycogen phosphorylase a (Homo sapiens, UniProt P06737); experiment: Glycogen phosphorylase a activity assay (reverse direction, liberation of inorganic phosphate); format: biochemical; conditions: 10 μM test substance; in vitro; incubated at room temperature for 40 minutes; absorption at 820 nm
T1 sequence (P06737 1-847): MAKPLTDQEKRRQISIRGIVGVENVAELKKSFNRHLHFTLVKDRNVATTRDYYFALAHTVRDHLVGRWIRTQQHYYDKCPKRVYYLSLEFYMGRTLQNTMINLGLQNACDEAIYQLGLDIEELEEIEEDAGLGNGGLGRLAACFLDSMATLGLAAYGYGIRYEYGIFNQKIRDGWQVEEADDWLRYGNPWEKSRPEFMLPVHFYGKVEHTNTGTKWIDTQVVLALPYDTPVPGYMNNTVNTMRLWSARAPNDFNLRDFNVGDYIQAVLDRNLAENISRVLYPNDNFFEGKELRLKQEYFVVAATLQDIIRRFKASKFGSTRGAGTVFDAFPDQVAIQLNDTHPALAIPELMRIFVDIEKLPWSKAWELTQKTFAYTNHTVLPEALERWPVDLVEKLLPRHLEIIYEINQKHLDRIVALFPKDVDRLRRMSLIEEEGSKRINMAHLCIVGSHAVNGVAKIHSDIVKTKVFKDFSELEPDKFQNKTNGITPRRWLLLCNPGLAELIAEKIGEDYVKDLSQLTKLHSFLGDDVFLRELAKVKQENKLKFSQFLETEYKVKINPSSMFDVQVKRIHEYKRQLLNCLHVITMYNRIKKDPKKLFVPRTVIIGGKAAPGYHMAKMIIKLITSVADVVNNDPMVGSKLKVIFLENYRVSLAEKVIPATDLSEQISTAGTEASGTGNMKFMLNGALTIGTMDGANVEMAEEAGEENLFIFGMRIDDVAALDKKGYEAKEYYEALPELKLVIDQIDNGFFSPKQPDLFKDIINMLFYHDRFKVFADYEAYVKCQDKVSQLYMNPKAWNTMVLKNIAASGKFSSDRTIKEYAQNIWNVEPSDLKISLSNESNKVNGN
Method: Glycogen Phosphorylase a Activity Assay
The effect of compounds on the activity of the active form of glycogen phosphorylase (GPa) was measured in the reverse direction by following the synthesis of glycogen from glucose 1-phosphate by determining the liberation of inorganic phosphate. All the reactions were carried out as duplicate determinations in microtiter plates with 96 wells (Half Area Plates, Costar No 3696), measuring the change in absorption owing to the formation of the reaction product at the wavelength specified hereinafter in a Multiskan Ascent Elisa Reader (Lab Systems, Finland).
In order to measure the GPa enzymic activity in the reverse direction, the general method of Engers et al. (Engers H D, Shechosky S, Madsen N B, Can J Biochem 1970 July; 48(7):746-754) was used to measure the conversion of glucose 1-phosphate into glycogen and inorganic phosphate. […] The baseline glycogen phosphorylase a activity in the absence of test substance was determined by adding 10 μl of buffer solution T (0.1% DMSO). […] After incubation at 45° C. for 60 minutes, the absorption at 820 nm was measured. […]

- inhibition at 10 µM [1]: 87%
- melting point: 164 °C
SMILES: O=C(O)CCCCCOc1c(Cl)cc(NC(=O)NC(=O)c2ccccc2Cl)cc1Cl [Example 1, 6-{2,6-Dichloro-4-[(2-chlorobenzoyl)ureido]phenoxy}hexanoic Acid]
